What follows are compounds tested against T1, dihydrolipoamide acyltransferase (DlaT) (Mycobacterium tuberculosis, UniProt P9WIS7) (assay: DlaT inhibition (Dlat IC50); DTNB peroxidase assay with Lpd, DlaT and AhpD). Conditions: Dlat IC50 category.
T1 sequence (P9WIS7 1-553): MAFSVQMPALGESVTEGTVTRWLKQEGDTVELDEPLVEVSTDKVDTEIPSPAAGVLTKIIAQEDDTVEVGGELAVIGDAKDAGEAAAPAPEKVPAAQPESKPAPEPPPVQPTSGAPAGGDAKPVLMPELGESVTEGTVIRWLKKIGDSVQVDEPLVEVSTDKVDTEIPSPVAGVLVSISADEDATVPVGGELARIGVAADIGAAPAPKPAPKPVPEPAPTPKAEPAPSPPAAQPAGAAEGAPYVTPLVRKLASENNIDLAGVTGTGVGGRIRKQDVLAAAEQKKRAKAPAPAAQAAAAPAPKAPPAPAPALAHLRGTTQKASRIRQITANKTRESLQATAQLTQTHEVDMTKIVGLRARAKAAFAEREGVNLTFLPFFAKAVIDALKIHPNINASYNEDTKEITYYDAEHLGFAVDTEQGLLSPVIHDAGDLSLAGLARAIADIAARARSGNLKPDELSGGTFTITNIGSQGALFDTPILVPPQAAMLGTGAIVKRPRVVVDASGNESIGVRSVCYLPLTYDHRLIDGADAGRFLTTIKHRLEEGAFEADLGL
Type: biochemical

| SMILES | IC50 [µM] |
| --- | --- |
| Cc1ccc(-c2ccc(C=C3SC(=S)N(C4CCC(C(=O)O)CC4)C3=O)o2)c(F)c1 (stereo not drawn) [Compound C46, 4-{5-[1-[5-(2-fluoro-4-methyl-phenyl)-furan-2-yl]-methylidene]-4-oxo-2-thioxo-thiazolidin-3-yl}-cyclohexanecarboxylic acid] | < 10 |
| O=C(O)C1CCC(N2C(=O)C(=Cc3ccc(-c4ccccc4F)s3)SC2=S)CC1 (stereo not drawn) [Compound C47, 4-{5-[1-[5-(2-fluoro-phenyl)-thiophen-2-yl]-methylidene]-4-oxo-2-thioxo-thiazolidin-3-yl}-cyclohexanecarboxylic acid] | 11 to 40 |
| CCOc1ccc(-c2ccc(C=C3SC(=S)N(C4CCCC(C(=O)O)C4)C3=O)o2)cc1 (stereo not drawn) [Compound C51, 3-{5-[1-[5-(4-ethoxy-phenyl)-furan-2-yl]-methylidene]-4-oxo-2-thioxo-thiazolidin-3-yl}-cyclohexanecarboxylic acid] | < 10 |
| CCOc1ccc(-c2ccc(C=C3SC(=S)N(C4CCC(C(=O)O)CC4)C3=O)o2)cc1 (stereo not drawn) [Compound C52, 4-{5-[1-[5-(4-ethoxy-phenyl)-furan-2-yl]-methylidene]-4-oxo-2-thioxo-thiazolidin-3-yl}-cyclohexanecarboxylic acid] | < 10 |
| COc1ccc(-c2ccc(C=C3SC(=S)N(C4CCC(C(=O)O)CC4)C3=O)o2)cc1F (stereo not drawn) [Compound C53, 4-{5-[1-[5-(3-fluoro-4-methoxy-phenyl)-furan-2-yl]-methylidene]-4-oxo-2-thioxo-thiazolidin-3-yl}-cyclohexanecarboxylic acid] | < 10 |
| CSc1ccccc1-c1ccc(C=C2SC(=S)N(C3CCC(C(=O)O)CC3)C2=O)o1 (stereo not drawn) [Compound C54, 4-{5-[1-[5-(2-methylsulfanyl-phenyl)-furan-2-yl]-methylidene]-4-oxo-2-thioxo-thiazolidin-3-yl}-cyclohexanecarboxylic acid] | < 10 |
| O=C(O)C1CCC(N2C(=O)C(=Cc3ccc(-c4ccc(C(F)(F)F)cc4)o3)SC2=S)CC1 (stereo not drawn) [Compound C55, 4-{4-oxo-2-thioxo-5-[1-[5-(4-trifluoromethyl-phenyl)-furan-2-yl]-methylidene]-thiazolidin-3-yl}-cyclohexanecarboxylic acid] | 11 to 40 |
| O=C(O)C1CCCC(N2C(=O)C(=Cc3ccc(-c4ccc(Cl)cc4)o3)SC2=S)C1 (stereo not drawn) [Compound C56, 3-{5-[1-[5-(4-chloro-phenyl)-furan-2-yl]-methylidene]-4-oxo-2-thioxo-thiazolidin-3-yl}-cyclohexanecarboxylic acid] | < 10 |
| CCCCOc1ccc(-c2ccc(C=C3SC(=S)N(C4CCC(C(=O)O)CC4)C3=O)o2)cc1 (stereo not drawn) [Compound C57, 4-{5-[1-[5-(4-butoxy-phenyl)-furan-2-yl]-methylidene]-4-oxo-2-thioxo-thiazolidin-3-yl}-cyclohexanecarboxylic acid] | 11 to 40 |
| CS(=O)(=O)c1ccc(-c2ccc(C=C3SC(=S)N(C4CCCC(C(=O)O)C4)C3=O)o2)cc1 (stereo not drawn) [Compound C58, 3-{5-[5-(4-Methanesulfonyl-phenyl)-furan-2-ylmethylene]-4-oxo-2-thioxo-thiazolidin-3-yl}-cyclohexanecarboxylic acid] | < 10 |
| CS(=O)(=O)c1ccc(-c2ccc(C=C3SC(=S)N(C4CCC(C(=O)O)CC4)C3=O)o2)cc1 (stereo not drawn) [Compound C59, 4-{5-[5-(4-Methanesulfonyl-phenyl)-furan-2-ylmethylene]-4-oxo-2-thioxo-thiazolidin-3-yl}-cyclohexanecarboxylic acid] | < 10 |
| Cc1ccccc1-c1ccc(C=C2SC(=S)N(C3CCCC(C(=O)O)C3)C2=O)o1 (stereo not drawn) [Compound C60, 3-{4-oxo-2-thioxo-5-[1-(5-o-tolyl-furan-2-yl)-methylidene]-thiazolidin-3-yl}-cyclohexanecarboxylic acid] | < 10 |
| Cc1ccccc1-c1ccc(C=C2SC(=S)N(C3CCC(C(=O)O)CC3)C2=O)o1 (stereo not drawn) [Compound C61, 4-{4-oxo-2-thioxo-5-[1-(5-o-tolyl-furan-2-yl)-methylidene]-thiazolidin-3-yl}-cyclohexanecarboxylic acid] | 11 to 40 |
| CSc1cccc(-c2ccc(C=C3SC(=S)N(C4CCCC(C(=O)O)C4)C3=O)o2)c1 (stereo not drawn) [Compound C62, 3-{5-[1-[5-(3-methylsulfanyl-phenyl)-furan-2-yl]-methylidene]-4-oxo-2-thioxo-thiazolidin-3-yl}-cyclohexanecarboxylic acid] | < 10 |
| CSc1cccc(-c2ccc(C=C3SC(=S)N(C4CCC(C(=O)O)CC4)C3=O)o2)c1 (stereo not drawn) [Compound C63, 4-{5-[1-[5-(3-methylsulfanyl-phenyl)-furan-2-yl]-methylidene]-4-oxo-2-thioxo-thiazolidin-3-yl}-cyclohexanecarboxylic acid] | < 10 |
| CSc1ccc(-c2ccc(C=C3SC(=S)N(C4CCCC(C(=O)O)C4)C3=O)o2)cc1 (stereo not drawn) [Compound C64, 3-{5-[1-[5-(4-methylsulfanyl-phenyl)-furan-2-yl]-methylidene]-4-oxo-2-thioxo-thiazolidin-3-yl}-cyclohexanecarboxylic acid] | < 10 |
| CSc1ccc(-c2ccc(C=C3SC(=S)N(C4CCC(C(=O)O)CC4)C3=O)o2)cc1 (stereo not drawn) [Compound C65, 4-{5-[1-[5-(4-methylsulfanyl-phenyl)-furan-2-yl]-methylidene]-4-oxo-2-thioxo-thiazolidin-3-yl}-cyclohexanecarboxylic acid] | < 10 |
| CC(C)Oc1ccc(-c2ccc(C=C3SC(=S)N(C4CCCC(C(=O)O)C4)C3=O)o2)cc1 (stereo not drawn) [Compound C66, 3-{5-[5-(4-Isopropoxy-phenyl)-furan-2-ylmethylene]-4-oxo-2-thioxo-thiazolidin-3-yl}-cyclohexanecarboxylic acid] | < 10 |
| CC(C)Oc1ccc(-c2ccc(C=C3SC(=S)N(C4CCC(C(=O)O)CC4)C3=O)o2)cc1 (stereo not drawn) [Compound C67, 4-{5-[5-(4-Isopropoxy-phenyl)-furan-2-ylmethylene]-4-oxo-2-thioxo-thiazolidin-3-yl}-cyclohexanecarboxylic acid] | < 10 |
| Cc1ccc(-c2cccc(C=C3SC(=S)N(C4CCCC(C(=O)O)C4)C3=O)c2)cc1 (stereo not drawn) [Compound C68, 3-{5-[1-(4′-methyl-biphenyl-3-yl)-methylidene]-4-oxo-2-thioxo-thiazolidin-3-yl}cyclohexanecarboxylic acid] | 41 to 80 |
| Cc1ccc(-c2cccc(C=C3SC(=S)N(C4CCC(C(=O)O)CC4)C3=O)c2)cc1 (stereo not drawn) [Compound C69, 4-{5-[1-(4′-methyl-biphenyl-3-yl)-methylidene]-4-oxo-2-thioxo-thiazolidin-3-yl}-cyclohexanecarboxylic acid] | < 10 |
| O=C(O)C1CCCC(N2C(=O)C(=Cc3ccc(-c4ccccc4-c4ccccc4)o3)SC2=S)C1 (stereo not drawn) [Compound C70, 3-{5-[1-(5-biphenyl-2-yl-furan-2-yl)-methylidene]-4-oxo-2-thioxo-thiazolidin-3-yl}-cyclohexanecarboxylic acid] | < 10 |
| O=C(O)C1CCC(N2C(=O)C(=Cc3ccc(-c4ccccc4-c4ccccc4)o3)SC2=S)CC1 (stereo not drawn) [Compound C71, 4-{5-[1-(5-biphenyl-2-yl-furan-2-yl)-methylidene]-4-oxo-2-thioxo-thiazolidin-3-yl}-cyclohexanecarboxylic acid] | < 10 |
| Cc1ccc(-c2ccc(C=C3SC(=S)N(C4CCCC(C(=O)O)C4)C3=O)cc2)cc1 (stereo not drawn) [Compound C72, 3-{5-[1-(4′-methyl-biphenyl-4-yl)-methylidene]-4-oxo-2-thioxo-thiazolidin-3-yl}-cyclohexanecarboxylic acid] | < 10 |
| Cc1ccc(-c2ccc(C=C3SC(=S)N(C4CCC(C(=O)O)CC4)C3=O)cc2)cc1 (stereo not drawn) [Compound C73, 4-{5-[1-(4′-methyl-biphenyl-4-yl)-methylidene]-4-oxo-2-thioxo-thiazolidin-3-yl}-cyclohexanecarboxylic acid] | < 10 |
| COc1ccc(C)cc1-c1ccc(C=C2SC(=S)N(C3CCCC(C(=O)O)C3)C2=O)o1 (stereo not drawn) [Compound C74, 3-{5-[5-(2-Methoxy-5-methyl-phenyl)-furan-2-ylmethylene]-4-oxo-2-thioxo-thiazolidin-3-yl}-cyclohexanecarboxylic acid] | 11 to 40 |
| COc1ccc(C)cc1-c1ccc(C=C2SC(=S)N(C3CCC(C(=O)O)CC3)C2=O)o1 (stereo not drawn) [Compound C75, 4-{5-[5-(2-Methoxy-5-methyl-phenyl)-furan-2-ylmethylene]-4-oxo-2-thioxo-thiazolidin-3-yl}-cyclohexanecarboxylic acid] | 11 to 40 |
| CC(=O)Nc1ccc(-c2ccc(C=C3SC(=S)N(C4CCC(C(=O)O)CC4)C3=O)o2)cc1 (stereo not drawn) [Compound C76, 4-{5-[1-[5-(4-acetylamino-phenyl)-furan-2-yl]-methylidene]-4-oxo-2-thioxo-thiazolidin-3-yl}-cyclohexanecarboxylic acid] | < 10 |
| CCCCc1ccc(-c2ccc(C=C3SC(=S)N(C4CCCC(C(=O)O)C4)C3=O)o2)cc1 (stereo not drawn) [Compound C77, 3-{5-[1-[5-(4-butyl-phenyl)-furan-2-yl]-methylidene]-4-oxo-2-thioxo-thiazolidin-3-yl}-cyclohexanecarboxylic acid] | < 10 |
| CCCCc1ccc(-c2ccc(C=C3SC(=S)N(C4CCC(C(=O)O)CC4)C3=O)o2)cc1 (stereo not drawn) [Compound C78, 4-{5-[1-[5-(4-butyl-phenyl)-furan-2-yl]-methylidene]-4-oxo-2-thioxo-thiazolidin-3-yl}-cyclohexanecarboxylic acid] | < 10 |

— patent publication US8338465B2, “Cyclic carboxylic acid rhodanine derivatives for the treatment and prevention of tuberculosis” (priority 2006, dated 2012)
